Data set [1] is described as follows: Parallel artificial membrane permeability assay (PAMPA). It counts as in vitro ADME. The conditions noted are these: 10 uM, pH 7.4, four hours. As to the method: 4.9 Study of membrane permeability of single-ligand and dual-ligand PROTACs Parallel artificial membrane permeability assay (PAMPA) is a non-cell based assay designed to predict passive, transcellular permeability of a test compound through a PVDF membrane filter pretreated with lipid. At a given pH a log Pe (log of effective permeability) can be determined by a UV spectrophotometer. […]
is carried out in the company of Eurofins Panlabs, 6 Research Park Dr. St. Charles, MO 63304, U.S.A. The results are attached as an excel file.
Sample preparation The test compound is prepared from a 10 mM DMSO stock solution and diluted to a single final concentration of 10 uM in donor buffer. The donor solution is placed in contact with the acceptor buffer at a single pH = 7.4 with the membrane in between and the sandwich is incubated for four hours at ambient temperature.
Reference compounds Ketoprofen, propranolol and furosemide. The reference compounds yield log Pe (10-6 cm/s) values that cover the typical range of the assay from high (Propranolol), mid (Ketoprofen) to low (Furosemide) permeability.
Analytical method UV/Vis spectrophotometer
The UV absorption is measured from 250 to 500 nm for both donor and acceptor plate.
Adjustments to the method may be made as necessary to improve detection or UV spectrum.
Data analysis The amount of compound UV absorbance is determined in the donor plate prior to starting the experiment for each compound. The UV absorbance was measured from the (1 picture or pasted object on this page, not shown here) […]
donor and acceptor plate after a four hour incubation time. The log Pe was calculated using […]
4.10 Statistical Analysis.
Data analyses were performed using GraphPad Prism 9 software. The results are presented as the mean ± standard deviation (SD) or standard error of mean (SEM). All statistical analyses were evaluated with one-way analysis of variance (ANOVAs), or unpaired Student’s t-test. The difference was considered statistically significant when P < 0.05.
In general terms: The PAMPA barrier holds no transporters, so it reflects passive diffusion.

The test system of data set [2] is A549 xenograft. In words: A549 xenograft mouse model, tumor growth. The data set is classed as in vivo. The conditions noted are these: i.p. The method, then:
4.7 Therapeutic anti-tumor evaluation
Animal experiments were carried out in accordance with the regulatory guidelines of the Ethics Committee of the Ghent University Hospital. 30 female Swiss Nude Immunodeficient mice (Crl:NU(Ico)-Foxn1nu) of 5 weeks-6 weeks old (Charles River) were subcutaneously injected with […] A549 (1:1 serum free DMEM medium: Matrigel (Corning)). 10 days post inoculation ,mice were randomized into five groups (6 mice/group) with equal average tumor volume and treatment was started: (1) the control group: Vehicle(20% PEG400 and 5% […]
2J2V group (0.1 mg/kg), (5) the 2J2V group(0.5 mg/kg).Mice were treated on Day 0, Day 2, Day 4, Day 11, Day 18 by intraperitoneal injection. Tumor growth was monitored every 3 days by caliper, and the tumor volume was calculated as 1/2 × length × width2. Body weight was monitored every 3 days by weighing scale. […]
The reduced […]
proteins were alkylated with 40 mM iodoacetamide (IAA) in the dark for 30 minutes. Then samples were acidified with 1.2% aqueous phosphoric acid and mixed with 6× volumes of 90% methanol, 100 mM TEAB, pH 7.1 (S-Trap binding buffer). The samples were loaded onto the (1 picture or pasted object on this page, not shown here)

The subject of data set [3] is BRD2, BRD3 and BRD4. Description: Mass spectrometry proteomics in A549 cells. It counts as cell-based, human. As to conditions: 10 nM, 4 hours, 7592 proteins quantified. As to the method: A549 cells in DMEM medium were seeded at 1×10^6 cells on a 6-well plate 24 h before […]
volume of DMSO. After 4 h, the cells were digested by trypsin, centrifuged at 250g for 5min and washed three times with PBS. Cells were resuspended in lysis buffer (50 mM triethylammonium bicarbonate (TEAB), 5% SDS (pH 7.5)), then sonicated, and clarified with centrifugation of 13,000g for 8 minutes. Each sample was reduced with 20 mM DTT, then warmed the solution first at 95 °C for 10 minutes and then at 60 °C for 1 hour. The reduced proteins were alkylated with 40 mM iodoacetamide (IAA) in the dark for 30 minutes. Then samples were acidified with 1.2% aqueous phosphoric acid and mixed with 6× volumes of 90% methanol, 100 mM TEAB, pH 7.1 (S-Trap binding buffer). The samples were loaded onto the (1 picture or pasted object on this page, not shown here)

In the case of `Cc1sc2c(c1C)C(c1ccc(Cl)cc1)=N[C@@H](CC(=O)NCCOCCOCCNC(=O)C[C@H](NC(=O)COCCOCCOCCOCCn1cc(CCC(=O)N[C@@H](CC(=O)NCCOCCOCCNc3cccc4c3C(=O)N(C3CCC(=O)NC3=O)C4=O)C(=O)NCCOCCOCCNc3cccc4c3C(=O)N(C3CCC(=O)NC3=O)C4=O)nn1)C(=O)NCCOCCOCCNC(=O)C[C@@H]1N=C(c3ccc(Cl)cc3)c3c(sc(C)c3C)-n3c(C)nnc31)c1nnc(C)n1-2` (stereo partly shown) [2J2P], the membrane permeability entry in data set [1] is “high membrane permeability”.

`Cc1ncsc1-c1ccc(C(C)NC(=O)C2CC(O)CN2C(=O)C(NC(=O)COCCOCCNC(=O)CC(NC(=O)CCc2cn(CCOCCOCCOCCOCC(=O)NC(CC(=O)NCCOCCOCCNC(=O)CC3N=C(c4ccc(Cl)cc4)c4c(sc(C)c4C)-n4c(C)nnc43)C(=O)NCCOCCOCCNC(=O)CC3N=C(c4ccc(Cl)cc4)c4c(sc(C)c4C)-n4c(C)nnc43)nn2)C(=O)NCCOCCOCC(=O)NC(C(=O)N2CC(O)CC2C(=O)NC(C)c2ccc(-c3scnc3C)cc2)C(C)(C)C)C(C)(C)C)cc1` (stereo not shown) [2J2V]: the membrane permeability entry in data set [1] was “very limited membrane permeability”. For the same compound, in data set [2] (higher dose of 0.5 mg kg−1, Swiss nude mice), the tumor growth result is “potent reduction in tumor growth”. Further, the “BET protein abundance change in proteome” value in data set [3] is on record as “top proteins being degraded the most”.

As for `Cc1ncsc1-c1ccc(CNC(=O)C2CC(O)CN2C(=O)C(NC(=O)COCCOCCOCCNC(=O)CC2N=C(c3ccc(Cl)cc3)c3c(sc(C)c3C)-n3c(C)nnc32)C(C)(C)C)cc1` (stereo not shown) [MZ1, reference compound], the membrane permeability entry in data set [1] was “very limited membrane permeability”. Also, the anti-tumor activity result in data set [2] (0.5 and 0.1 mg kg−1, Swiss nude mice) is listed as “did not exhibit significant anti-tumor activity”. Further, the “BET protein abundance change in proteome” value in data set [3] is “much lower change in BET protein abundance”.
